# According to ChEMBL document CHEMBL3272150, “Studies on antianaphylactic agents. 5. Synthesis of 3-(1H-tetrazol-5-yl)chromones, a new series of antiallergic substances” (J Med Chem, 1977):
# Active and inactive are the calls of the source. The rule behind the calls is not given here.
# Test system: Rattus norvegicus
# Assay: Antiallergic activity in po dosed Sprague-Dawley rat assessed as inhibition of egg albumin-induced passive cutaneous anaphylaxis administered 5 mins prior to egg albumin challenge measured after 30 mins by Evan blue dye leakage assay
# Type: functional
# Conditions: read-out: ID50 (the source's name)
row,SMILES,ED50 [mg/kg]
1,Cc1ccc2occ(-c3nnn[nH]3)c(=O)c2c1,10
2,O=C([O-])c1cc(=O)c2c(OCC(O)COc3cccc4oc(C(=O)[O-])cc(=O)c34)cccc2o1.[Na+].[Na+] [CROMOLYN SODIUM],> 100
3,O=c1c(-c2nnn[nH]2)coc2c1ccc1ccccc12,7.4
4,O=c1c(-c2nnn[nH]2)coc2ccccc12,5.3
5,O=c1c(-c2nnn[nH]2)coc2ccc3ccccc3c12,8.5
6,CCc1ccc2occ(-c3nnn[nH]3)c(=O)c2c1,6.9
7,CC(C)c1ccc2occ(-c3nnn[nH]3)c(=O)c2c1,17
8,COc1ccc2occ(-c3nnn[nH]3)c(=O)c2c1,7
9,Cc1cc(C)c2occ(-c3nnn[nH]3)c(=O)c2c1,1.25

# Test system: Rattus norvegicus
# Assay: Antiallergic activity in iv dosed Sprague-Dawley rat assessed as inhibition of egg albumin-induced passive cutaneous anaphylaxis administered immediately prior to egg albumin challenge measured after 30 mins by Evan blue dye leakage assay relative to disodium cromoglycate
# Type: functional
# Conditions: not given
row,SMILES,fold change (FC)
1,CCCCc1ccc2occ(/C=C/c3nnn[nH]3)c(=O)c2c1,0.07
2,O=c1c(-c2nnn[nH]2)coc2ccc(C3CCCCC3)cc12,0.5
3,Cc1ccc2occ(-c3nnn[nH]3)c(=O)c2c1,2.4
4,O=c1cc(-c2nnn[nH]2)oc2ccccc12,1.4
5,O=c1c(-c2nnn[nH]2)coc2c1ccc1ccccc12,8.3
6,O=c1c(-c2nnn[nH]2)coc2cc(O)ccc12,1.1
7,CN(C)c1ccc2occ(-c3nnn[nH]3)c(=O)c2c1,2.3
8,O=c1c(-c2nnn[nH]2)coc2ccc(O)cc12,4.5
9,O=c1c(-c2nnn[nH]2)coc2ccccc12,3.5
10,O=c1c(-c2nnn[nH]2)coc2ccc([N+](=O)[O-])cc12,4
11,Cc1oc2ccccc2c(=O)c1-c1nnn[nH]1,0.1
12,O=c1c(/C=C/c2nnn[nH]2)coc2ccccc12,0.3
13,CCCCc1ccc2occ(-c3nnn[nH]3)c(=O)c2c1,1.8
14,O=c1c(-c2nnn[nH]2)coc2ccc3ccccc3c12,5
15,O=c1c(-c2nnn[nH]2)coc2cc(O)c(O)cc12,1.8
16,CCc1ccc2occ(-c3nnn[nH]3)c(=O)c2c1,4
17,CCCCCCc1ccc2occ(-c3nnn[nH]3)c(=O)c2c1,0.6
18,CCOC(=O)c1ccc2occ(-c3nnn[nH]3)c(=O)c2c1,2.9
19,CC(C)c1ccc2occ(-c3nnn[nH]3)c(=O)c2c1,3.4
20,COc1ccc2occ(-c3nnn[nH]3)c(=O)c2c1,2.2
21,O=c1c(-c2nnn[nH]2)coc2ccc(Cl)cc12,4
22,Cc1cc(C)c2occ(-c3nnn[nH]3)c(=O)c2c1,11.6
23,O=c1c(CCc2nnn[nH]2)coc2ccccc12,0.07
24,CCCc1ccc2occ(-c3nnn[nH]3)c(=O)c2c1,3.4
25,O=C(Cc1nnn[nH]1)c1ccccc1O,0.35
26,CCCCOc1ccc2c(=O)c(-c3nnn[nH]3)coc2c1,0.9

# Test system: Rattus norvegicus
# Assay: Antiallergic activity in Sprague-Dawley rat assessed as inhibition of egg albumin-induced passive cutaneous anaphylaxis up to 20 mg/kg, iv administered immediately prior to egg albumin challenge measured after 30 mins by Evan blue dye leakage assay
# Type: functional, organism-based
# Design: dose 20 mg/kg
# Conditions: not given
row,SMILES,inhibition
1,Cc1oc2ccccc2c(=O)c1Cc1nnn[nH]1,inactive
2,CC(C)(C)n1nnc(-c2coc3ccccc3c2=O)n1,inactive
3,Cc1nnc(-c2coc3ccccc3c2=O)o1,inactive

# Test system: not listed separately
# Assay: Dissociation constant, pKa of the compound
# Type: physicochemical
# Conditions: not given
row,pKa,SMILES
1,5.85,N#Cc1coc2ccccc2c1=O
2,8.85,O=C(O)c1coc2ccccc2c1=O
